Structures can show the parent of a compound that is named as a salt. Where two headings read alike, the source gives them in different places.
Target: T1, His6-AspH315–758 (human aspartate/asparagine-β-hydroxylase, AspH) (Homo sapiens, UniProt Q12797)
T1 construct: N-Terminally His6-tagged human AspH315–758 (His6-AspH315–758) was produced in E. coli BL21 (DE3) cells; made in house; host or cells: E. coli BL21 (DE3), pET-28a(+) vector
T1 sequence (Q12797 315-758): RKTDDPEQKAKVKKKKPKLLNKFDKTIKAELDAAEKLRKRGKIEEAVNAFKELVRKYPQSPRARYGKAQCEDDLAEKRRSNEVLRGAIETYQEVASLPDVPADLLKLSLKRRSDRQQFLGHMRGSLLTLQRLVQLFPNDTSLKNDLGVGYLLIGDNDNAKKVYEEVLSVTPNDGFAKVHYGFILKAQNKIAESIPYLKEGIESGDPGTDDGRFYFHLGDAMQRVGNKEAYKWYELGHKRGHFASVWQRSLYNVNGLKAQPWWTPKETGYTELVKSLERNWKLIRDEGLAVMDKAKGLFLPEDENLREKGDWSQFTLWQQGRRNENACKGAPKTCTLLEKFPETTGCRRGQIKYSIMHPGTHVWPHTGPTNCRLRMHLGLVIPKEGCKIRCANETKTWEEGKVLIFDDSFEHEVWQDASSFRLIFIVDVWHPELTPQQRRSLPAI
Assay: SPE-MS AspH inhibition assay (LOPAC screen at fixed 20 μM and IC50 dose-response), hydroxylation of cyclic peptide hFX-CP101–119
Type: biochemical

[1] = LOPAC compound at fixed 20 uM, plate 1, normalised to DMSO and 2,4-PDCA controls
[2] = LOPAC compound at fixed 20 uM, substrate conversion, plate 1
[3] = LOPAC compound at 20uM, plate 2, conversion of substrate peptide
[4] = LOPAC Plate 4, compound at 20 uM, substrate conversion
[5] = LOPAC compound at 20uM, plate 2, normalised to DMSO and 2,4-PDCA controls

SMILES	Plate 1 (% inhibition) [1] [%]	Plate 1 (% conversion) [2] [%]	also measured
C[C@H]1C[C@H]2[C@@H]3CCC4=CC(=O)C=C[C@]4(C)[C@@]3(Cl)[C@@H](O)C[C@]2(C)[C@@]1(O)C(=O)CO [Beclomethasone]	-10.42	39.37	–
Cl.Cn1c(CCCC(=O)O)nc2cc(N(CCCl)CCCl)ccc21 [Bendamustine hydrochloride]	–	–	Plate 2 (% conversion): 39.38%; Plate 2 (% inhibition) (20 µM): -10.22%
C[N+](C)(C)CC=O [Betaine aldehyde chloride]	-3.10	36.91	–
C[N+](C)(C)CC(=O)O [Betaine hydrochloride]	-4.44	37.36	–
C[C@H]1C[C@H]2[C@@H]3CCC4=CC(=O)C=C[C@]4(C)[C@@]3(F)[C@@H](O)C[C@]2(C)[C@@]1(O)C(=O)CO [Betamethasone]	-5.12	37.59	–
CC(C[N+](C)(C)C)OC(N)=O (centres unmarked) [Bethanechol chloride]	-8.85	38.85	–
C=C(c1ccc(C(=O)O)cc1)c1cc2c(cc1C)C(C)(C)CCC2(C)C [Bexarotene]	–	–	Plate 2 (% conversion) [3]: 33.95%; inhibition at 20 µM (LOPAC compound at 20uM, plate 2, normalised to DMSO and 2,4-PDCA controls, read-out: Plate 2 (% inhibition)): 6%
CC(O)(CS(=O)(=O)c1ccc(F)cc1)C(=O)Nc1ccc(C#N)c(C(F)(F)F)c1 (centres unmarked) [Bicalutamide (CDX)]	–	–	% conversion [4]: 24.70%
O=C(/C=C/c1ccc(O)cc1)CC(=O)/C=C/c1ccc(O)cc1 [Bisdemethoxycurcumin, reference compound]	–	–	inhibition at 20 µM (AspH activity, fixed compound concentration 20 μM, initial LOPAC screen, 0.5%v/v DMSO, read-out: Inhibition at 20 µM [%]): 99.7%
COc1cc(Nc2c(C#N)cnc3cc(OCCCN4CCN(C)CC4)c(OC)cc23)c(Cl)cc1Cl [Bosutinib]	-79.17	62.46	Plate 5 (% inhibition) (plate 5 (Pfitzer), test compounds at fixed 20 μM): -77.35%; Plate 5 (% conversion) (plate 5 (Pfitzer), test compounds at fixed 20 μM, mean conversion DMSO 32.88): 62.64%
CCN[C@H]1CN(CCCOC)S(=O)(=O)c2sc(S(N)(=O)=O)cc21 [Brinzolamide]	–	–	% conversion [4]: 38.63%; inhibition at 20 µM (LOPAC Plate 4, compound at 20 uM, read-out: % inhibition): -6.32%
C=CCc1ccccc1OCC(O)CNC1(C)CCC(C(C)(C)NC(=O)CBr)CC1 (centres unmarked) [Bromoacetyl alprenolol menthane]	–	–	Plate 1 (% conversion): 65.73%; Plate 1 (% inhibition): -88.92%
C[N+](C)(C)CCOC(=O)CBr.[Br-] [Bromoacetylcholine bromide]	–	–	Plate 1 (% conversion): 36.25%; Plate 1 (% inhibition): -1.12%
CCCC1O[C@@H]2C[C@H]3[C@@H]4CCC5=CC(=O)C=C[C@]5(C)[C@H]4[C@@H](O)C[C@]3(C)[C@]2(C(=O)CO)O1 (some centres unmarked) [Budesonide]	-13.14	40.29	–
CC(NC(C)(C)C)C(=O)c1cccc(Cl)c1 (centres unmarked) [Bupropion hydrochloride]	–	–	Plate 1 (% conversion): 38.01%; Plate 1 (% inhibition): -6.38%
O=C1CC2(CCCC2)CC(=O)N1CCCCN1CCN(c2ncccn2)CC1 [Buspirone hydrochloride]	-13.49	–	Plate 1 (% conversion): 40.40%
NC(=O)c1cc(N2CC2)c([N+](=O)[O-])cc1[N+](=O)[O-] [CB 1954]	4.86	34.24	–
CS(=O)(=O)O.Cn1cc(C(F)(F)F)nc1-c1ccc(OCC(O)CNCCOc2ccc(O)c(C(N)=O)c2)cc1 (centres unmarked) [CGP 20712A methanesulfonate]	–	–	Plate 2 (% conversion) [3]: 36.56%; Plate 2 (% inhibition) [5]: -1.81%
CC(C)(CO)Cc1cc(C(C)(C)C)c(O)c(C(C)(C)C)c1 [CGP-7930]	-11.33	39.68	–
CC(C)(C=O)Cc1cc(C(C)(C)C)c(O)c(C(C)(C)C)c1 [CGP-13501]	0.58	35.68	–
CCn1cnc2c(Nc3cccc(Cl)c3)nc(N[C@@H]3CCCC[C@@H]3N)nc21.Cl [CGP-74514A hydrochloride]	–	–	Plate 1 (% conversion): 10.02%; Plate 1 (% inhibition): 76.98%
COc1ccc(OCC2c3cc(OC)c(OC)cc3CCN2C(=O)c2cccc(Cl)c2)cc1 (centres unmarked) [CIQ]	–	–	% conversion [4]: 36.09%
N#Cc1cc2nc([O-])c([O-])nc2cc1[N+](=O)[O-].[Na+].[Na+] [CNQX disodium]	–	–	Plate 2 (% conversion) [3]: 39.74%; Plate 2 (% inhibition) [5]: -11.30%
COc1ccc(/C=C/c2nc(NCCCN(C)C)c3ccccc3n2)cc1.Cl.Cl.O [CP-31398 dihydrochloride hydrate]	–	–	% conversion [4]: 42.00%
COc1ccc(/C=C/c2nc(NCCCN(C)C)c3ccccc3n2)cc1 [CP-31398]	–	–	Plate 5 (% conversion): 45.27%; Plate 5 (% inhibition): -26.30%
CN[C@@H]1CC[C@@H](c2ccc(Br)cc2)c2ccccc21.Cl [CP-53631]	–	–	Plate 5 (% conversion): 37.76%; Plate 5 (% inhibition): -4.23%
CC[C@H]1OC(=O)[C@H](C)[C@@H](O[C@H]2C[C@@](C)(OC)[C@@H](O)[C@H](C)O2)[C@H](C)[C@@H](O[C@@H]2O[C@H](C)C[C@H](NC)[C@H]2O)[C@](C)(O)C[C@@H](C)CN(C)[C@H](C)[C@@H](O)[C@]1(C)O [CP-64434]	–	–	Plate 5 (% conversion): 37.11%; Plate 5 (% inhibition): -2.34%
Nc1nc2ccc(Cl)cc2n2c(-c3ccccc3)nnc12 [CP-66713]	–	–	Plate 3 (% conversion): 39.27%; Plate 5 (% conversion): 29.84%; Plate 5 (% inhibition): 19.04%

Now from value to molecule, other results behind:

Plate 1 (% inhibition) [1] [%]	Plate 1 (% conversion) [2] [%]	SMILES	also measured
77.21	9.94	c1ccc2cc(-c3ncc[nH]3)ccc2c1 [Benazoline oxalate]	–
-17.92	41.89	COc1cccc(OC)c1OCCNCC1CSc2ccccc2O1 (centres unmarked) [Benoxathian hydrochloride]	–
-4.66	37.44	NC(=O)c1ccccc1 [Benzamide]	–
-1.42	36.35	N=C(N)c1ccccc1 [Benzamidine hydrochloride]	–
8.35	33.07	NC(=NCc1ccccc1)NC(=O)c1nc(Cl)c(N)nc1N [Benzamil hydrochloride]	–
-9.74	39.14	CN1[C@@H]2CC[C@H]1C[C@@H](OC(c1ccccc1)c1ccccc1)C2 [Benztropine mesylate]	–
94.47	4.14	CC(C)COCC(CN(Cc1ccccc1)c1ccccc1)N1CCCC1 (centres unmarked) [Bepridil hydrochloride]	–
-4.72	37.46	CC(C)C[C@H](NC(=O)[C@@H](O)[C@H](N)Cc1ccccc1)C(=O)O [Bestatin hydrochloride]	–
-3.28	36.97	CC(C)NCC(O)COc1ccc(CCOCC2CC2)cc1 (centres unmarked) [Betaxolol hydrochloride]	–
-10.34	39.34	OC(CCN1CCCCC1)(c1ccccc1)C1CC2C=CC1C2 (centres unmarked) [Biperiden hydrochloride]	–
11.82	31.90	Cc1c(-c2ccc(-c3ccccc3F)cc2)nc2ccc(F)cc2c1C(=O)[O-].[Na+] [Brequinar sodium salt hydrate]	–
3.08	34.84	CCCCNc1cc(C(=O)O)cc(S(N)(=O)=O)c1Oc1ccccc1 [Bumetanide]	–
-13.62	40.45	Clc1nccc2c1ccc1ccccc12 [CBIQ]	–
-9.21	38.96	CCc1cccc(N(C)C(N)=Nc2cccc3ccccc23)c1 [CNS-1102]	–

— publication PMC7251097, “Aspartate/asparagine-β-hydroxylase: a high-throughput mass spectrometric assay for discovery of small molecule inhibitors” (Scientific Reports, 2020)
